According to patent US20250375450A1, “SMARCA2/4 INHIBITION AS A STRATEGY TO TREAT TUMORS THAT HARBOR ABERRANT BAF ASSEMBLIES” (BOARD OF REGENTS, THE UNIVERSITY OF TEXAS SYSTEM, priority 2022, published 2025):
“Also recorded” adds a separate entry of the source.

Tests used:
[1] = system: ES3 (Ewing's sarcoma) cells; assay: Apoptosis, IncuCyte Caspase-3/7 green reagent; format: cell-based
Protocol: (§1) Referring to FIG. 11A and FIG. 11B, RH4 (FIG. 11A) and ES3 (FIG. 11B) cells were treated with the indicated concentrations of BAF-X-1 or DMSO in triplicate and apoptosis was detected using the IncuCyte Caspase 3/7 green dye (Sartorius). Brightfield and green fluorescence images were captured every 2 hours from 4 fields per well on the IncuCyte live cell imager. The proportion of caspase positive (green) cells relative to % confluence of the well was calculated on the IncuCyte software and plotted against time. Referring to FIG. 11C and FIG. 11D, RH41 cells were treated with 7.5 μM AT-301 (FIG. 11D) or DMSO (FIG. 11C) for 24 hours, harvested with accutase, washed, and fixed in 70% ethanol. They were subsequently stained with propidium iodide/RNase and fluorescence was analyzed on BD flow cytometer. Resulting data was analyzed using FlowJo software.
(§2) The medium was then replaced with fresh medium containing dilutions of the compound (AT-301) or DMSO (as a negative control), and 1× IncuCyte Caspase-3/7 green reagent (Sartorius) and proliferation/apoptosis was measured on IncuCyte live-cell imaging system. The treated cells were imaged every (2/4) hours and four fields from each well were imaged for analysis.

[2] = system: RH41 (rhabdomyosarcoma) cells; assay: Apoptosis, IncuCyte Caspase-3/7 green reagent; format: cell-based
Protocol: as §1, §2

Ewing Sarcoma cell lines = assay: Growth of Ewing Sarcoma cell lines, live cell imaging (Incucyte S3) confluency; format: cell-based
Protocol: Briefly, human SMARCA2 was purified, and a high-throughput screen (HTS) of 40,000 compounds was conducted. […] In brief, cells were grown in RPMI media supplemented with 10% Fetal bovine serum (FBS), 1× penicillin, and streptomycin antibiotics. Cells were placed in an incubator with 5% C02 and 50% humidity. When cells reached 90% confluency, cells were harvested, washed twice in 1×PBS, counted using trypan blue exclusion method. Then cells were seeded in 96-well plates (duplicates, n=2) at the density of 20,000 cells per well. Allowed them to attach to the bottom of the well for 1 to 2 hrs and treated with different concentration of AT-301 compound starting at highest concentration of 10 micromolar to serial dilution of the compound to the lowest concentration of 0.039 micromolar. Cells treated with only DMSO were also included as negative control. Cells were monitored for 72 hrs. by live cell imaging method (Incucyte S3) taking images every two hours. The confluency was determined and plotted against time (hours) by using Prism software.

Ewing's sarcoma (EW13) = assay: Patient-derived xenograft (PDX) mouse model, single mouse testing (SMT); format: in vivo; details: 50 mg/kg orally three times a week for four weeks
Protocol: To assess the antitumor activity of AT-301 in a mouse model, a single mouse testing (SMT) experiment was used. SMT has 95% concordance with conventional testing and allows far greater inclusion of genetic/epigenetic heterogeneity. A patient-derived xenograft (PDX) mouse model (C.B.17 scid females (Envigo, IN)) of Ewing's sarcoma (EW13) was used in the SMT experiment. 50 mg/kg of AT-301 (formulated in 30% captisol) or just vehicle (30% captisol) was administered orally three times a week for four weeks.

- IC50 (Ewing Sarcoma cell lines; 8 different Ewing Sarcoma cell lines, 72 hrs live cell imaging): ~5 µM
Structure (SMILES): Clc1ccc(CNc2nc(NC3CCCC3)nc3ccccc23)cc1Cl [AT-301, N^2-cyclopentyl-N^4-(3,4-dichlorobenzyl)quinazoline-2,4-diamine]
- Apoptosis (caspase 3/7) [1]: induces apoptosis
- Apoptosis (caspase 3/7) [2]: induces apoptosis
- Growth of Ewing Sarcoma cell lines (Ewing Sarcoma cell lines; live cell imaging, confluency): attenuate the growth; also recorded: strongly attenuated the growth
- Tumor growth (Ewing's sarcoma (EW13); 30% captisol, EW13 PDX in C.B.17 scid females): completely suppressed the tumor growth
- Body weight (Ewing's sarcoma (EW13); EW13 PDX mouse): without any apparent loss in body weight
